Results from US12466822B2, “Heterocyclic compounds as immunomodulators” (Incyte Corporation, priority 2016, dated 2025).

Biological target: T1, PD-1/PD-L1 protein/protein interaction (recombinant human PD-L1 protein (19-238), recombinant human PD-1 protein (25-167)) (Homo sapiens, UniProt Q9NZQ7)
T1 construct: Recombinant human PD-L1 protein (19-238) with a His-tag at the C-terminus; purchased AcroBiosystems PD1-H5229 (PD-L1-His); PD1-H5257 (PD-1-Fc)
Assay: PD-1/PD-L1 Homogeneous Time-Resolved Fluorescence (HTRF) Binding Assay
Conditions: 25° C., PBS buffer (pH 7.4), 40 minutes preincubation with inhibitors
Protocol: The assays were conducted in a standard black 384-well polystyrene plate with a final volume of 20 μL. Inhibitors were first serially diluted in DMSO and then added to the plate wells before the addition of other reaction components. The final concentration of DMSO in the assay was 1%. The assays were carried out at 25° C. in the PBS buffer (pH 7.4) with 0.05% Tween-20 and 0.1% BSA. Recombinant human PD-L1 protein (19-238) with a His-tag at the C-terminus was purchased from AcroBiosystems (PD1-H5229). Recombinant human PD-1 protein (25-167) with Fc tag at the C-terminus was also purchased from AcroBiosystems (PD1-H5257). PD-L1 and PD-1 proteins were diluted in the assay buffer and 10 μL was added to the plate well. Plates were centrifuged and proteins were preincubated with inhibitors for 40 minutes. The incubation was followed by the addition of 10 μL of HTRF detection buffer supplemented with Europium cryptate-labeled anti-human IgG (PerkinElmer-AD0212) specific for Fc and anti-His antibody conjugated to SureLight®-Allophycocyanin (APC, PerkinElmer-AD0059H). After centrifugation, the plate was incubated at 25° C. for 60 min. before reading on a PHERAstar FS plate reader (665 nm/620 nm ratio). Final concentrations in the assay were […], 10 nM PD-L1, 1 nM europium anti-human IgG and 20 nM anti-His-Allophycocyanin. IC50 determination was performed by fitting the curve of percent control activity versus the log of the inhibitor concentration using the GraphPad Prism 5.0 software.

T1 sequence (Q9NZQ7 19-238): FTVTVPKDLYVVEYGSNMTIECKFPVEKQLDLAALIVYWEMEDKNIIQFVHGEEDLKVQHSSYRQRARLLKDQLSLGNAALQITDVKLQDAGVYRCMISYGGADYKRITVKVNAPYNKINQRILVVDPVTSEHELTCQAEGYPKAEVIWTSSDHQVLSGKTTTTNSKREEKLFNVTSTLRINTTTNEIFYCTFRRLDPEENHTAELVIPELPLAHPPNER

SMILES | IC50 [nM]
Cc1c(Nc2nccc3cc(CN4CC[C@H](O)C4)cnc23)cccc1-c1cccc(-c2nc3c(o2)CN(C(=O)CN(C)C)C3)c1C [Example 38, (S)-2-(dimethylamino)-1-(2-(3′-((3-((3-hydroxypyrrolidin-1-yl)methyl)-1,7-naphthyridin-8-yl)amino)-2,2′-dimethyl-[1,1′-biphenyl]-3-yl)-4,6-dihydro-5H-pyrrolo[3,4-d]oxazol-5-yl)ethan-1-one] | ≤ 10
Cc1c(Nc2nccc3cc(CN4CC[C@@H](O)C4)cnc23)cccc1-c1cccc(-c2nc3c(o2)CN(C(=O)CN2CC(C(=O)O)C2)C3)c1C [Example 39, (R)-1-(2-(2-(3′-((3-((3-hydroxypyrrolidin-1-yl)methyl)-1,7-naphthyridin-8-yl)amino)-2,2′-dimethyl-[1,1′-biphenyl]-3-yl)-4,6-dihydro-5H-pyrrolo[3,4-d]oxazol-5-yl)-2-oxoethyl)azetidine-3-carboxylic acid] | ≤ 10
Cc1c(Nc2nccc3cc(CN4CC[C@@H](O)C4)cnc23)cccc1-c1cccc(-c2nc3c(o2)CN(C(=O)CN2CC[C@H](C(=O)O)C2)C3)c1C [Example 40, (S)-1-(2-(2-(3′-((3-(((R)-3-hydroxypyrrolidin-1-yl)methyl)-1,7-naphthyridin-8-yl)amino)-2,2′-dimethyl-[1,1′-biphenyl]-3-yl)-4,6-dihydro-5H-pyrrolo[3,4-d]oxazol-5-yl)-2-oxoethyl)pyrrolidine-3-carboxylic acid] | ≤ 10
Cc1c(Nc2nccc3cc(CN4CC[C@@H](O)C4)cnc23)cccc1-c1cccc(-c2nc3c(o2)CN(C(=O)CN2CC[C@@H](C(=O)O)C2)C3)c1C [Example 41, (R)-1-(2-(2-(3′-((3-(((R)-3-hydroxypyrrolidin-1-yl)methyl)-1,7-naphthyridin-8-yl)amino)-2,2′-dimethyl-[1,1′-biphenyl]-3-yl)-4,6-dihydro-5H-pyrrolo[3,4-d]oxazol-5-yl)-2-oxoethyl)pyrrolidine-3-carboxylic acid] | ≤ 10
Cc1c(Nc2nccc3cc(CN4CC[C@@H](O)C4)cnc23)cccc1-c1cccc(-c2nc3c(o2)CN(C(=O)CN2CCCC[C@H]2C(=O)O)C3)c1C [Example 42, (S)-1-(2-(2-(3′-((3-(((R)-3-hydroxypyrrolidin-1-yl)methyl)-1,7-naphthyridin-8-yl)amino)-2,2′-dimethyl-[1,1′-biphenyl]-3-yl)-4,6-dihydro-5H-pyrrolo[3,4-d]oxazol-5-yl)-2-oxoethyl)piperidine-2-carboxylic acid] | ≤ 10
Cc1c(COc2cc(OCc3cncc(C#N)c3)c(CN3CCCC[C@H]3C(=O)O)cc2Cl)cccc1-c1cccc(Nc2nccc3cc(CN4CC[C@@H](O)C4)cnc23)c1C [Example 43, (S)-1-(5-chloro-2-((5-cyanopyridin-3-yl)methoxy)-4-((3′-((3-(((R)-3-hydroxypyrrolidin-1-yl)methyl)-1,7-naphthyridin-8-yl)amino)-2,2′-dimethyl-[1,1′-biphenyl]-3-yl)methoxy)benzyl)piperidine-2-carboxylic acid] | ≤ 10
Cc1c(COc2cc(OCc3cncc(C#N)c3)c(CN3CC[C@@H](C(=O)O)C3)cc2Cl)cccc1-c1cccc(Nc2nccc3cc(CN4CC[C@@H](O)C4)cnc23)c1C [Example 44, (R)-1-(5-chloro-2-((5-cyanopyridin-3-yl)methoxy)-4-((3′-((3-(((R)-3-hydroxypyrrolidin-1-yl)methyl)-1,7-naphthyridin-8-yl)amino)-2,2′-dimethyl-[1,1′-biphenyl]-3-yl)methoxy)benzyl)pyrrolidine-3-carboxylic acid] | ≤ 10

Other lines, results leading:

IC50 [nM] | SMILES
≤ 10 | Cc1c(Nc2nccc3cc(CN4CC[C@@](C)(C(=O)O)C4)cnc23)cccc1-c1cccc(NC(=O)c2nc3c(n2C)CCNC3)c1Cl [Example 45, (R)-1-((8-(2′-Chloro-2-methyl-3′-(1-methyl-4,5,6,7-tetrahydro-1H-imidazo[4,5-c]pyridine-2-carboxamido)biphenyl-3-ylamino)-1,7-naphthyridin-3-yl)methyl)-3-methylpyrrolidine-3-carboxylic acid]
≤ 10 | Cc1c(NC(=O)c2nc3c(n2C)CCN(C)C3)cccc1-c1cccc(Nc2nccc3cc(CN4CC[C@@H](C(=O)O)C4)cnc23)c1C [Example 46, (R)-1-((8-(3′-(1,5-dimethyl-4,5,6,7-tetrahydro-1H-imidazo[4,5-c]pyridine-2-carboxamido)-2,2′-dimethylbiphenyl-3-ylamino)-1,7-naphthyridin-3-yl)methyl)pyrrolidine-3-carboxylic acid]
≤ 10 | Cc1c(Nc2nccc3cc(CN4CC[C@@H](O)C4)cnc23)cccc1-c1cccc(NC(=O)c2nc3c(n2C)CCN(C[C@H]2CC[C@H](C(=O)O)CC2)C3)c1Cl [Example 47, trans-4-((2-(2-chloro-3′-(3-(((R)-3-hydroxypyrrolidin-1-yl)methyl)-1,7-naphthyridin-8-ylamino)-2′-methylbiphenyl-3-ylcarbamoyl)-1-methyl-6,7-dihydro-1H-imidazo[4,5-c]pyridin-5(4H)-yl)methyl)cyclohexanecarboxylic acid]
≤ 10 | Cc1c(Nc2nccc3cc(CN4CC[C@@H](O)C4)cnc23)cccc1-c1cccc(NC(=O)c2nc3c(n2C)CCN(C[C@H]2CC[C@@H](C(=O)O)CC2)C3)c1Cl [Example 48, cis-4-((2-(2-chloro-3′-(3-(((R)-3-hydroxypyrrolidin-1-yl)methyl)-1,7-naphthyridin-8-ylamino)-2′-methylbiphenyl-3-ylcarbamoyl)-1-methyl-6,7-dihydro-1H-imidazo[4,5-c]pyridin-5(4H)-yl)methyl)cyclohexanecarboxylic acid]
≤ 10 | Cc1c(Nc2nccc3cc(CN4CCCC4)cnc23)cccc1-c1cccc(NC(=O)c2nc3c(n2C)CCN(C[C@H]2CC[C@@H](C(=O)O)CC2)C3)c1Cl [Example 49, cis-4-((2-(2-chloro-2′-methyl-3′-(3-(pyrrolidin-1-ylmethyl)-1,7-naphthyridin-8-ylamino)biphenyl-3-ylcarbamoyl)-1-methyl-6,7-dihydro-1H-imidazo[4,5-c]pyridin-5(4H)-yl)methyl)cyclohexanecarboxylic acid]
≤ 10 | Cc1c(Nc2nccc3cc(CN[C@@H](C)CO)cnc23)cccc1-c1cccc(NC(=O)c2nc3c(n2C)CCN(C[C@H]2CC[C@H](C(=O)O)CC2)C3)c1Cl [Example 50, trans-4-((2-(2-chloro-3′-(3-(((S)-1-hydroxypropan-2-ylamino)methyl)-1,7-naphthyridin-8-ylamino)-2′-methylbiphenyl-3-ylcarbamoyl)-1-methyl-6,7-dihydro-1H-imidazo[4,5-c]pyridin-5(4H)-yl)methyl)cyclohexanecarboxylic acid]
≤ 10 | Cc1c(Nc2nccc3cc(CN[C@H]4CCC[C@@H]4O)cnc23)cccc1-c1cccc(NC(=O)c2nc3c(n2C)CCN(C[C@H]2CC[C@H](C(=O)O)CC2)C3)c1Cl [Example 51, trans-4-((2-(2-chloro-3′-(3-(((1S,2S)-2-hydroxycyclopentylamino)methyl)-1,7-naphthyridin-8-ylamino)-2′-methylbiphenyl-3-ylcarbamoyl)-1-methyl-6,7-dihydro-1H-imidazo[4,5-c]pyridin-5(4H)-yl)methyl)cyclohexanecarboxylic acid]
